Source: patent US9101638B2, “Boronic acid derivatives and therapeutic uses thereof” (Rempex Pharmaceuticals, Inc., priority 2013, dated 2015)
Like-named read-outs stand apart in the source and are kept apart here.

Tests used:
KP1009 (CTX-M-15) = experiment: Potentiation of aztreonam, strain KP1009; assay type: cell-based
ec302 (TEM-10) [1] = experiment: Potentiation of aztreonam, strain ec302; assay type: cell-based
KP1004 (K-2) = experiment: Potentiation of aztreonam, strain KP1004; assay type: cell-based; settings: minimum BLI concentration inhibiting growth with 4 μg/mL aztreonam
ECL1002 = experiment: Potentiation of aztreonam, strain ECL1002; assay type: cell-based; settings: minimum BLI concentration inhibiting growth with 4 μg/mL aztreonam
EC1010 (CMY-6) = experiment: Potentiation of aztreonam, strain EC1010; assay type: cell-based
ec308 (SHV-5) = experiment: Potentiation of tigemonam, strain ec308; assay type: cell-based; settings: minimum BLI concentration inhibiting growth with 4 μg/mL tigemonam
ec302 (TEM-10) [2] = experiment: Potentiation of tigemonam, strain ec302; assay type: cell-based
CTX-M-14 = CTX-M-14 (Escherichia coli, UniProt Q9L5C7); experiment: Inhibition of nitrocefin cleavage by purified CTX-M-14; assay type: biochemical; settings: nitrocefin reporter substrate, purified enzyme; read-out: Ki (CTX-M-14, NCF)
How it was run: (§1)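 Steps: enzyme plus inhibitor dilutions in reaction buffer; 10 min at room temperature; add nitrocefin; read absorbance at 490 nm each 10 sec for 10 min.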

PAM1032/KPC-2 = experiment: Biapenem potentiation in PAM1032/KPC-2 (MexAB-OprM overexpressed); assay type: cell-based, Pseudomonas aeruginosa; settings: BLI potency to decrease biapenem MIC 64-fold, 32 to 0.5 μg/ml; efflux proficient strain
Procedure: Efflux of BLIs from Pseudomonas aeruginosa by the MexAB-OprM efflux pump was also evaluated. […] Due to expression of KPC-2 both strains became resistant to biapenem. […] Potency of BLIs to potentiate biapenem in these strains was determined. […] The ratio of MPC64 values for each BLI in PAM1032/KPC-2 (efflux proficient) and PAM1154/KPC-2 (efflux deficient) was determined to generate the Efflux Index (EI).

Chymotrypsin = biological target: T1, Chymotrypsin (Bos taurus, UniProt P00766); experiment: Serine protease inhibition: chymotrypsin; assay type: biochemical, mammalian; settings: Table 8A, class symbols; read-out: IC50 Chymotrypsin
T1 construct: purchased Calbiochem 230832
Procedure: (§2) The effect of selected BLIs on the enzymatic activity of some common mammalian serine proteases was evaluated.
(§3) 50 μl of the diluted enzyme was mixed with 50 μl of inhibitor at various concentrations and 50 μl of corresponding buffer (Table 7). Reaction mixtures were incubated for 10 min at 37° C. Subsequently, 50 μl of corresponding substrate (Table 7) was added and absorbance or fluorescence was monitored for 30 min on SpectraMax M2 plate reader (Molecular Devices). 4-(2-Aminoethyl)benzenesulfonyl fluoride hydrochloride (AEBSF) and leupeptin were used as positive controls. Rates of reaction were calculated and presented relative to “no treatment” control.

Thrombin = biological target: T2, Thrombin (Homo sapiens, UniProt P00734); experiment: Serine protease inhibition: thrombin; assay type: biochemical, mammalian; settings: Table 8A, class symbols; read-out: IC50 Thrombin
T2 construct: Thrombin; MPBio; 19491880; purchased MPBio 19491880
How it was run: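 Inhibitors at several concentrations are preincubated with each protease for 10 min at 37° C before substrate is added, and reaction rates over 30 min are compared with an untreated control.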

Plasmin = biological target: T3, Plasmin (Homo sapiens, UniProt P00747); experiment: Serine protease inhibition: plasmin; assay type: biochemical, mammalian; settings: Table 8A, class symbols; read-out: IC50 Plasmin
T3 construct: Plasmin; MPBio; 19419890; purchased MPBio 19419890
Procedure: as §2, §3

Elastase = biological target: T4, Elastase (Sus scrofa, UniProt P00772); experiment: Serine protease inhibition: elastase; assay type: biochemical, mammalian; settings: Table 8A, class symbols; read-out: IC50 Elastase
T4 construct: purchased Calbiochem 324682
Procedure: as §2, §3

HtrA2 = biological target: T5, HtrA2 (Homo sapiens, UniProt O43464); experiment: Serine protease inhibition: HtrA2; assay type: biochemical, mammalian; settings: Table 8B; read-out: IC50 HtrA2
T5 sequence (O43464 134-458): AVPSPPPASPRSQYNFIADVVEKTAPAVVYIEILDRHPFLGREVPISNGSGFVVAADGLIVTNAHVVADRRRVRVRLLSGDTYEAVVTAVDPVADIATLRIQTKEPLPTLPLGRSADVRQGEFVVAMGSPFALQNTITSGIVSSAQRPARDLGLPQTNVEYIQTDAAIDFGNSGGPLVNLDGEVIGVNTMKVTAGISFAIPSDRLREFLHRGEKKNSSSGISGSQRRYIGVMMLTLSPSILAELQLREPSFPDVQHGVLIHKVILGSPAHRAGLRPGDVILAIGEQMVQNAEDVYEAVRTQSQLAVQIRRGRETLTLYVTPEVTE
Procedure: as §2, §3

[3] = biological target: T6, Dipeptidyl peptidase 9 (DPP9) (Homo sapiens, UniProt Q86TI2); experiment: Serine protease inhibition: DPP9; assay type: biochemical, mammalian; settings: Table 8B; read-out: IC50 DPP9
T6 construct: purchased BPS Bioscience 80090
Procedure: as §2, §3

SHV-12 = SHV-12 (Klebsiella pneumoniae, UniProt P0AD64, E235K/G234S/L31Q); experiment: Inhibition of nitrocefin cleavage by purified SHV-12; assay type: biochemical
How it was run: as §1

P99 = P99 (Enterobacter cloacae, UniProt P05364); experiment: Inhibition of nitrocefin cleavage by purified P99; assay type: biochemical; settings: nitrocefin reporter substrate, purified enzyme; read-out: Ki (P99, NCF)
Procedure: (§4) Purified enzymes were mixed with various concentrations of inhibitors in reaction buffer and incubated for 10 min at room temperature. Nitrocefin was added and substrate cleavage profiles were recorded at 490 nm every 10 sec for 10 min.

CMY-2 = CMY-2 (Klebsiella pneumoniae, UniProt Q48434); experiment: Inhibition of nitrocefin cleavage by purified CMY-2; assay type: biochemical; settings: nitrocefin reporter substrate, purified enzyme; read-out: Ki (CMY-2, NCF)
Procedure: as §4

OXA-48 = OXA-48 (Klebsiella pneumoniae, UniProt Q6XEC0); experiment: Inhibition of nitrocefin cleavage by purified OXA-48; assay type: biochemical; settings: nitrocefin reporter substrate, purified enzyme; read-out: Ki (OXA-48, NCF)
How it was run: as §1

[4] = nitrocefin reporter substrate, purified enzyme, read-out: Ki (SHV-12, NCF)

T4 sequence (P00772 27-266): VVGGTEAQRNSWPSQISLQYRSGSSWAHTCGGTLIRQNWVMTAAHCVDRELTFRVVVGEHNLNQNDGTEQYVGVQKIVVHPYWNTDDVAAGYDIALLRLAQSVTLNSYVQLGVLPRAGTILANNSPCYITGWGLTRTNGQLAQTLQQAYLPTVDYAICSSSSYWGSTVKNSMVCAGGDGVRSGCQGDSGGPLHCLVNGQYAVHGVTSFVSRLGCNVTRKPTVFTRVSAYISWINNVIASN
SHV-12, sequence (P0AD64 22-286 L31Q/G234S/E235K): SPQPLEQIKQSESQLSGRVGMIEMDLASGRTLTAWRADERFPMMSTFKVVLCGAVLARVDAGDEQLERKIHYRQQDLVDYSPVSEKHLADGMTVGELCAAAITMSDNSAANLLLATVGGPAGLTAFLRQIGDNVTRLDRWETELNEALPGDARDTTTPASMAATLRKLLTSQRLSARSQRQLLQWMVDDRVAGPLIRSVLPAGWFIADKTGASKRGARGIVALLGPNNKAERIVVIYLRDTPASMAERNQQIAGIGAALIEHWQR
T6 sequence (Q86TI2 whole entry): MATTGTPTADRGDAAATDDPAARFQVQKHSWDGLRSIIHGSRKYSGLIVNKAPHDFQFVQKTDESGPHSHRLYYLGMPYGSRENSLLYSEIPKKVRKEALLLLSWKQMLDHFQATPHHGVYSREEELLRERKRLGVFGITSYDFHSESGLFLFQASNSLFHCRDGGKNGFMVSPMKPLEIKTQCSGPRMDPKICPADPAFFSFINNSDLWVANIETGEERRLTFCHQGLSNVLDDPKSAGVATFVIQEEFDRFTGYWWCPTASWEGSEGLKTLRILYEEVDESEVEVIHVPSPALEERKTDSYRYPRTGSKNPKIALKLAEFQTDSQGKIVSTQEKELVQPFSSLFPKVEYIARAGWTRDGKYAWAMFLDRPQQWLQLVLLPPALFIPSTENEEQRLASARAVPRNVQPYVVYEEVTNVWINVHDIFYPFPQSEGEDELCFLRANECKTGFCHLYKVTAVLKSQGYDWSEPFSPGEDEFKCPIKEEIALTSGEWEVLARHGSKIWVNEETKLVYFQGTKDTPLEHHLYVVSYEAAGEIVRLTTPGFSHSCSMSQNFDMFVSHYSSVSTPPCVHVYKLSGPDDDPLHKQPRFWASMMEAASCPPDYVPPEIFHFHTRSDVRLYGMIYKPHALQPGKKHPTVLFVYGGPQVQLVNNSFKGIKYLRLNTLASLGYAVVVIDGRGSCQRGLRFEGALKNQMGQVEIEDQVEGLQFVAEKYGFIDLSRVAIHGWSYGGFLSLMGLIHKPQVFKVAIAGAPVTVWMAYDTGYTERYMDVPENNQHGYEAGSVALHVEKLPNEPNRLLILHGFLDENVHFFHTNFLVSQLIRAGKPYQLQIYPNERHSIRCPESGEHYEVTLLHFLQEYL
T3 sequence (P00747 581-810 limits assumed, species assumed): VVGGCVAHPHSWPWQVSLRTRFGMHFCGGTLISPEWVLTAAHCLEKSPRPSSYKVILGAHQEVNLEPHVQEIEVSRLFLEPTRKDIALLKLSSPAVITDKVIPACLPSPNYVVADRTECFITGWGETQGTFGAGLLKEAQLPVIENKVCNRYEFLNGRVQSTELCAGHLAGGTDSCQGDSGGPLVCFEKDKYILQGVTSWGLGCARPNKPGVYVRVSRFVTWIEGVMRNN
T3 sequence (P00747 97-580 partner limits assumed, species assumed): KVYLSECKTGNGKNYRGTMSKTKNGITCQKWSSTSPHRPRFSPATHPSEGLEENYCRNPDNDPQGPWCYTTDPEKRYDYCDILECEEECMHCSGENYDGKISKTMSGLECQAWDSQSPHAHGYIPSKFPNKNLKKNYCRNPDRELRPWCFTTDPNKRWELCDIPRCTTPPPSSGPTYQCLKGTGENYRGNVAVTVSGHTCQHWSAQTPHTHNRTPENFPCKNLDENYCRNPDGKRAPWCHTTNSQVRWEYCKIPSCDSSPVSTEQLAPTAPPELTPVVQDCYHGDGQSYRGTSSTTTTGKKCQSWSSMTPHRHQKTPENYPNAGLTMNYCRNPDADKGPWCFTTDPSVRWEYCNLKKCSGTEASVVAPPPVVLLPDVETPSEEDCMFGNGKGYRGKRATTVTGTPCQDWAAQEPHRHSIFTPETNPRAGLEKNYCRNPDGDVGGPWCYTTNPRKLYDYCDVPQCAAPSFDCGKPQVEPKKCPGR
OXA-48, sequence (Q6XEC0 23-265 limits assumed): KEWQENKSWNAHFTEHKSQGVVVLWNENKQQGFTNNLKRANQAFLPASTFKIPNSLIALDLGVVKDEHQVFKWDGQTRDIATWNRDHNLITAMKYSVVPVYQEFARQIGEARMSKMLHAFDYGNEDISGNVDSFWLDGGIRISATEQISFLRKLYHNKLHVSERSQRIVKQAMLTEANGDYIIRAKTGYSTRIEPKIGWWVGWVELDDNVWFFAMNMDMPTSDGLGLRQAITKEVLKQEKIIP
P99, sequence (P05364 21-381): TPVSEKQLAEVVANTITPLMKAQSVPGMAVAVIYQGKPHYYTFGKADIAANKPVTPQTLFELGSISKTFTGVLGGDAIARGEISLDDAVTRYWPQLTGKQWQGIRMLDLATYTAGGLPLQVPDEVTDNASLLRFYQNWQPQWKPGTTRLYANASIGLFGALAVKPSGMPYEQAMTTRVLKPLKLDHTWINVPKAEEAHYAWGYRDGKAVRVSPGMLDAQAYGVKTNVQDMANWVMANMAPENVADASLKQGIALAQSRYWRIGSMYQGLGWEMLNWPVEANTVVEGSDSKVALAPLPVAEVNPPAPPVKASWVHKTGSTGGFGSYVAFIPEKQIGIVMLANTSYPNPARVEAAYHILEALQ
CTX-M-14, sequence (Q9L5C7 entry or part of it): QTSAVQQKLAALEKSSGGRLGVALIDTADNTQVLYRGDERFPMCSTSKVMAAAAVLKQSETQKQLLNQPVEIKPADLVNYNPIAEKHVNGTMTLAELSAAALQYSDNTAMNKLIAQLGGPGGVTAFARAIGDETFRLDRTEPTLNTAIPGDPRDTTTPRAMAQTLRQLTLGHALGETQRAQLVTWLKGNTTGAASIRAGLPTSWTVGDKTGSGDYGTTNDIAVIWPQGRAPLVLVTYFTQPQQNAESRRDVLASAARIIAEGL
CMY-2, sequence (Q48434 21-381, species assumed): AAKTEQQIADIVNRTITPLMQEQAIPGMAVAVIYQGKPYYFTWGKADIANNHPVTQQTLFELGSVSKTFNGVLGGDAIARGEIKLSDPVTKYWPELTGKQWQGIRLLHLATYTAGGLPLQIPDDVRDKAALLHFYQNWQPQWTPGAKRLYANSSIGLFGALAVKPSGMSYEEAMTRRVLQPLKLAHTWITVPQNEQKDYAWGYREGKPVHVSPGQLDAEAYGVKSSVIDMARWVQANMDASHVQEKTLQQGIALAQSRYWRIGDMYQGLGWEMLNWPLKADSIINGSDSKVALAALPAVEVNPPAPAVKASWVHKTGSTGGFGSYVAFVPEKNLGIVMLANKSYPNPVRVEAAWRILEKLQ

| SMILES | AZT MPC4 CTX-M-15 KP1009 (KP1009 (CTX-M-15)) | AZT MPC4 TEM-10 ec302 (ec302 (TEM-10) [1]) | AZT MPC4 K-2 KP1004 (KP1004 (K-2)) | AZT MPC4 ECL1002 (ECL1002) | AZT MPC4 CMY-6 EC1010 (EC1010 (CMY-6)) | TIG MPC4 SHV-5 ec308 (ec308 (SHV-5)) | TIG MPC4 TEM-10 ec302 (ec302 (TEM-10) [2]) | Ki (CTX-M-14) [µM] | PAM1032/KPC-2 Biapenem MPC64 (PAM1032/KPC-2) | IC50 (Chymotrypsin) [µM] | IC50 (Thrombin) [µM] | IC50 (Plasmin) [µM] | IC50 (Elastase) [µM] | IC50 (HtrA2) [µM] | IC50 [3] [µM] | Ki (SHV-12) [µM] | Ki (P99) [µM] | Ki (CMY-2) [µM] | Ki (OXA-48) [µM] | Ki (SHV-12; [4]) [µM] |
| --- | --- | --- | --- | --- | --- | --- | --- | --- | --- | --- | --- | --- | --- | --- | --- | --- | --- | --- | --- | --- |
| Nc1nnc(SCC(=O)N[C@H]2Cc3cccc(C(=O)O)c3OB2O)s1 [Compound 5, (R)-3-(2-(5-amino-1,3,4-thiadiazol-2-ylthio)acetamido)-2-hydroxy-3,4-dihydro-2H-benzo[e][1,2]oxaborinine-8-carboxylic acid] | X (key: X = MIC of less than 1 μg/mL; Y = MIC of 1 μg/mL to 10 μg/mL; Z = MIC of greater than 10 μg/mL) | Y (key: X = MIC of less than 1 μg/mL; Y = MIC of 1 μg/mL to 10 μg/mL; Z = MIC of greater than 10 μg/mL) | Y (Y = MIC of 1 μg/mL to 10 μg/mL) | Y (Y = MIC of 1 μg/mL to 10 μg/mL) | X (key: X = MIC of less than 1 μg/mL; Y = MIC of 1 μg/mL to 10 μg/mL; Z = MIC of greater than 10 μg/mL) | Y (Y = MIC of 1 μg/mL to 10 μg/mL) | Y (key: X = MIC of less than 1 μg/mL; Y = MIC of 1 μg/mL to 10 μg/mL; Z = MIC of greater than 10 μg/mL) | 0.001 to 0.01 | Y (Y = 10 to 40) | > 800 | > 800 | > 800 | > 800 | > 500 | > 500 |  |  |  |  |  |
| CSC(=O)N[C@H]1Cc2cccc(C(=O)O)c2OB1O [Compound 11, (R)-2-hydroxy-3-(methylthiocarbonylamino)-3,4-dihydro-2H-benzo[e][1,2]oxaborinine-8-carboxylic acid] | Y (key: X = MIC of less than 1 μg/mL; Y = MIC of 1 μg/mL to 10 μg/mL; Z = MIC of greater than 10 μg/mL) | Y (key: X = MIC of less than 1 μg/mL; Y = MIC of 1 μg/mL to 10 μg/mL; Z = MIC of greater than 10 μg/mL) | Y (Y = MIC of 1 μg/mL to 10 μg/mL) | Y (Y = MIC of 1 μg/mL to 10 μg/mL) | Y (key: X = MIC of less than 1 μg/mL; Y = MIC of 1 μg/mL to 10 μg/mL; Z = MIC of greater than 10 μg/mL) | Y (Y = MIC of 1 μg/mL to 10 μg/mL) | Z (key: X = MIC of less than 1 μg/mL; Y = MIC of 1 μg/mL to 10 μg/mL; Z = MIC of greater than 10 μg/mL) |  | Z (Z Greater than 40) | > 800 | > 800 | > 800 | > 800 |  | > 500 | < 0.001 | < 0.001 | < 0.001 | < 0.001 |  |
| O=C(CSc1nncs1)N[C@H]1Cc2cccc(C(=O)O)c2OB1O [Compound 7, (R)-3-(2-(1,3,4-thiadiazol-2-ylthio)acetamido)-2-hydroxy-3,4-dihydro-2H-benzo[e][1,2]oxaborinine-8-carboxylic acid] | X (key: X = MIC of less than 1 μg/mL; Y = MIC of 1 μg/mL to 10 μg/mL; Z = MIC of greater than 10 μg/mL) | Y (key: X = MIC of less than 1 μg/mL; Y = MIC of 1 μg/mL to 10 μg/mL; Z = MIC of greater than 10 μg/mL) | Y (Y = MIC of 1 μg/mL to 10 μg/mL) | Y (Y = MIC of 1 μg/mL to 10 μg/mL) | X (key: X = MIC of less than 1 μg/mL; Y = MIC of 1 μg/mL to 10 μg/mL; Z = MIC of greater than 10 μg/mL) | X (X = MIC of less than 1 μg/mL) | Y (key: X = MIC of less than 1 μg/mL; Y = MIC of 1 μg/mL to 10 μg/mL; Z = MIC of greater than 10 μg/mL) | < 0.001 | Z (Z Greater than 40) | > 800 | > 800 | > 800 | > 800 |  | > 500 |  | < 0.001 | < 0.001 |  | < 0.001 |
| [N-]=[N+]=NCC(=O)N[C@H]1Cc2cccc(C(=O)O)c2OB1O [Compound 8, (R)-3-(2-azidoacetamido)-2-hydroxy-3,4-dihydro-2H-benzo[e][1,2]oxaborinine-8-carboxylic acid] | X (key: X = MIC of less than 1 μg/mL; Y = MIC of 1 μg/mL to 10 μg/mL; Z = MIC of greater than 10 μg/mL) | Y (key: X = MIC of less than 1 μg/mL; Y = MIC of 1 μg/mL to 10 μg/mL; Z = MIC of greater than 10 μg/mL) | X (X = MIC of less than 1 μg/mL) | Y (Y = MIC of 1 μg/mL to 10 μg/mL) | X (key: X = MIC of less than 1 μg/mL; Y = MIC of 1 μg/mL to 10 μg/mL; Z = MIC of greater than 10 μg/mL) | Y (Y = MIC of 1 μg/mL to 10 μg/mL) | Y (key: X = MIC of less than 1 μg/mL; Y = MIC of 1 μg/mL to 10 μg/mL; Z = MIC of greater than 10 μg/mL) |  | Y (Y = 10 to 40) | > 800 | > 800 | > 800 | > 800 | > 500 | > 500 |  |  |  | < 0.001 | < 0.001 |
